Consider one compound from ChEMBL document CHEMBL5727708, “Spiro-condensed pyrrolidine derivatives as deubiquitylating enzymes (DUB) inhibitors” (2020).

A word on the IC50: it is the point on the concentration scale where inhibition reaches its midpoint.

In this experiment the target is T1, OTU domain-containing protein 7B (Homo sapiens, UniProt Q6GQQ9).
T1 sequence (Q6GQQ9 whole entry): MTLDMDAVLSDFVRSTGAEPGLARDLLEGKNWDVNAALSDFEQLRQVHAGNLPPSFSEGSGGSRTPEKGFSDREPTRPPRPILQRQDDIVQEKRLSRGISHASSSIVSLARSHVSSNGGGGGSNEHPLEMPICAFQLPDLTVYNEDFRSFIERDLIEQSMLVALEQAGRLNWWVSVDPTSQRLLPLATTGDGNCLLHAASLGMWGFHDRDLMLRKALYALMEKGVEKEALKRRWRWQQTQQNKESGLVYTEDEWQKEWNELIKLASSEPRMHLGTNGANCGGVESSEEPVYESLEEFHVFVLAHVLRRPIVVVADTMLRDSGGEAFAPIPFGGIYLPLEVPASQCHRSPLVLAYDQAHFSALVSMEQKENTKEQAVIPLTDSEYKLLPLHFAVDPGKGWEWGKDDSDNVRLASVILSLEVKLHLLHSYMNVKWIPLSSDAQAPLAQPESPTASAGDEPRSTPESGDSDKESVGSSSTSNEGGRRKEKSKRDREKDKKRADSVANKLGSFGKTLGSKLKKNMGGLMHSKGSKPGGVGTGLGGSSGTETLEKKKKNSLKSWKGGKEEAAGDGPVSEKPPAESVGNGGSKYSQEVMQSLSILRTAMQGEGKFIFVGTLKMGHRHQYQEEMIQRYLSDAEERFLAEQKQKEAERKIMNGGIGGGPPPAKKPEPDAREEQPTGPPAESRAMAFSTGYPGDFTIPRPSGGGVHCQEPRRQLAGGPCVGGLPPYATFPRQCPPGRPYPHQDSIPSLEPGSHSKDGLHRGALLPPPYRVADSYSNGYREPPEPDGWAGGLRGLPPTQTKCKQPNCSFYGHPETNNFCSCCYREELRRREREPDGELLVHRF
As to the kind of experiment: Biochemical Assay: Dilution plates were prepared at 21 times the final concentration (2100 μM for a final concentration of 100 μM) in 50% DMSO in a 96-well polypropylene V-bottom plate (Greiner #651201). A typical 8-point dilution series to be 100, 30, 10, 3, 1, 0.3, 0.1, 0.03 μM final. Reactions were performed in duplicate in black 384 well plates (small volume, Greiner 784076) in a final reaction volume of 21 μl. Either 1 μl of 50% DMSO or diluted compound was added to the plate. Cezanne 1 was diluted in reaction buffer (40 mM Tris, pH 7.5, 0.005% Tween 20, 0.5 mg/ml BSA, 5 mM-beta-mercaptoethanol) to the equivalent of 0.005 μl/well and 10 μl of diluted Cezanne 1 was added to the compound. Enzyme and compound were incubated for 30 min at room temp. Reactions were initiated by the addition of 50 nM of TAMRA labelled peptide linked to ubiquitin via an iso-peptide bond as fluorescence polarisation substrate. Reactions were read immediately after addition of substrate and following a 2 hr incubation at room temperature. Readings were performed on a Pherastar Plus. λ Excitation 540 nm; λ Emission 590 nm.

With `Cc1ccc2[nH]ncc2c1-c1cnc2c(c1)NC(=O)C1(CCN(C#N)C1)N2` (stereo unspecified), the IC50 is under 100 nM.
